Results taken from PubChem BioAssay AID2060497 (Molecular Pharmacology Branch, DTP, NCI, 2025).

Tested on: 317291-083-R-J1-PDC complex spheroids, viability
Assay: Anticancer human tumor 317291-083-R-J1-PDC patient-derived soft tissue sarcoma cell line growth inhibition [GQUAD]
Conditions: for IC50: curve of first compound; for viability, T/C: stronger effect = lower value
Description: DNA G-quadruplex Stabilizer Agents in Combinations in Complex Spheroids
A high-throughput screen of multi-cell type tumor spheroids was designed to identify active combinations of DNA G-quadruplex stabilizer agents and targeted small molecules. Complex spheroids include a stromal component modeled by human endothelial cells (HUVEC) and fibroblasts modeled by human mesenchymal stem cells (MSCs). The concentration ranges selected for each drug and investigational agent were based upon clinically achievable concentrations if the clinical Cmax of the agent was known.
Compounds. The drugs and investigational agents: pidnarulex (CX-5461; NSC782164), APTO-253 (NSC789042), BRACO-19 (NSC847499), peposertib (NSC802822), ceralasertib (NSC780249), elimusertib (NSC800525), camonsertib (NSC841442), AZD-1390 (NSC803789), olaparib (NSC753686), talazoparib (NSC767125), ART-558 (NSC835418), sotorasib (NSC818433), MRTX-1133 (NSC836407), SN-38 (NSC673596), topotecan (NSC609699), etoposide (NSC141540), doxorubicin (NSC123127), gemcitabine (NSC613327), 5-fluorouracil (NSC19893), paclitaxel (NSC125973), vemurafenib (NSC761431), panobinostat (NSC761190), R-306465 (JNJ-16241199; NSC773264), adavosertib (NSC754352), TP-3654 (NSC805149), carboplatin (NSC241240), KSQ-4279 (NSC840948), and staurosporine (NSC755774) were obtained from the National Cancer Institute (NCI) Developmental Therapeutics Program Chemical Repository (34). The FDA-approved anticancer drug set is available from the NCI Developmental Therapeutics Program. […] The stock solutions were prepared in dimethyl sulfoxide (DMSO, Sigma-Aldrich, St. Louis, MO, cat. D2650) at 800-fold the tested concentration and stored at -70 degrees C prior to their use. All drugs and investigational agents were tested over a range starting from a high concentration at or near the clinical Cmax and decreasing in half-log increments. If the clinical Cmax for an agent had not been determined, the highest concentration tested was 10 microM.
2.3 Cell Culture. All cells were maintained in an incubator at 37 degrees C and 5% CO2 with 95% humidity. The PDC lines were cultured according to standard operating procedures established by the NCI PDMR. All PDCs were thawed and cultured in Matrigel-coated flasks prepared with a working solution of 1X Ham's F-12 nutrient mix, without supplementation (Invitrogen, cat. 11765054), 100 U/mL penicillin-streptomycin (Invitrogen, cat. 15140122), and 2.5% Matrigel (Corning Inc., cat. 354248) for the first three passages. The 857933-349-R-J2-PDC line was cultured in 6C/Colon 1B media, which includes advanced DMEM/F-12 (Thermo Fisher Scientific, cat. 12634028), 10 mM HEPES (Thermo Fisher Scientific, cat. 15630080), 1X GlutaMAX supplement (Thermo Fisher Scientific, cat. 35050061), 0.1 mg/mL primocin (InvivoGen, cat. ant-pm-2), 10% defined fetal bovine serum, heat inactivated (HyClone Laboratories Inc., cat. SH30070.03HI), 50% L-WRN conditioned media (ATCC, cat. CRL-3276), 1.25 mM N-Acetyl-L-cysteine (Sigma-Aldrich, cat. A9165), 10 mM nicotinamide (Sigma-Aldrich, cat. N0636), 1X B-27 supplement (Thermo Fisher Scientific, cat. 17504044), 1X N-2 supplement (Thermo Fisher Scientific, cat. 17502048), 10 microM Y-27632 dihydrochloride (Tocris Bioscience, cat. 1254), and 50 ng/mL human EGF recombinant protein (Thermo Fisher Scientific, cat. PHG0311). The 485176-168-R4-J1-PDC line was cultured in Panc media, which includes all 6C/Colon 1B media components plus 100 ng/mL human FGF-10 (Thermo Fisher Scientific, cat. 100-26), 500 nM SB-431542 (Selleckchem, cat. S1067), and gastrin (Tocris, cat. 3006).
[…]

[1] = second compound 0.0316 µM, first compound 0.0316 µM
[2] = second compound 0.0316 µM, first compound 0.1 µM
[3] = second compound 0.0316 µM, first compound 0.316 µM
[4] = second compound 0.0316 µM, first compound 1 µM
[5] = second compound 0.0316 µM, first compound 3.16 µM
[6] = second compound 0.0316 µM, first compound 10 µM
[7] = second compound 0.1 µM, first compound 0.0316 µM
[8] = second compound 0.1 µM, first compound 0.1 µM
[9] = second compound 0.1 µM, first compound 0.316 µM
[10] = second compound 0.1 µM, first compound 1 µM
[11] = second compound 0.1 µM, first compound 3.16 µM
[12] = second compound 0.1 µM, first compound 10 µM
[13] = second compound 0.316 µM, first compound 0.0316 µM
[14] = second compound 0.316 µM, first compound 0.1 µM
[15] = second compound 0.316 µM, first compound 0.316 µM
[16] = second compound 0.316 µM, first compound 1 µM
[17] = second compound 0.316 µM, first compound 3.16 µM
[18] = second compound 0.316 µM, first compound 10 µM
[19] = second compound 1 µM, first compound 0.0316 µM
[20] = second compound 1 µM, first compound 0.1 µM
[21] = second compound 1 µM, first compound 0.316 µM
[22] = second compound 1 µM, first compound 1 µM
[23] = second compound 1 µM, first compound 3.16 µM
[24] = second compound 1 µM, first compound 10 µM
[25] = second compound 3.16 µM, first compound 0.0316 µM
[26] = second compound 3.16 µM, first compound 0.1 µM
[27] = second compound 3.16 µM, first compound 0.316 µM
[28] = second compound 3.16 µM, first compound 1 µM
[29] = second compound 3.16 µM, first compound 3.16 µM
[30] = second compound 3.16 µM, first compound 10 µM
[31] = second compound 10 µM, first compound 0.0316 µM
[32] = second compound 10 µM, first compound 0.1 µM
[33] = second compound 10 µM, first compound 0.316 µM
[34] = second compound 10 µM, first compound 1 µM
[35] = second compound 10 µM, first compound 3.16 µM
[36] = second compound 10 µM, first compound 10 µM
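Further: spheroids exposed to compounds for one week before readout.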
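Wherever viability, T/C is given: percent viability relative to DMSO vehicle wells taken as 100%.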

For `O=C(c1cc(Cc2n[nH]c(=O)c3ccccc23)ccc1F)N1CCN(C(=O)C2CC2)CC1` + Cc1[nH]c2ccc(F)cc2c1-c1nc2c3cccnc3c3ncccc3c2[nH]1, which IC50 (second compound 0.0316 µM) is on record?
Its IC50 is greater than 10 µM.

What about the IC50 (second compound 0.1 µM) of the same molecule?
The IC50 was greater than 10 µM.

What about the IC50 (second compound 0.316 µM) of the same molecule?
Its IC50 is greater than 10 µM.

What about the IC50 (second compound 1 µM) of the same molecule?
The IC50 was greater than 10 µM.

What about the IC50 (second compound 3.16 µM) of the same molecule?
Its IC50 is 8.8 µM.

And the IC50 (second compound 10 µM)?
The IC50 was greater than 10 µM.

And the viability, T/C [1]?
The viability, T/C was 97.2%.

And the viability, T/C [2]?
Its viability, T/C is 92.2%.

What about the viability, T/C [3] of the same molecule?
Its viability, T/C is 91.8%.

And the viability, T/C [4]?
The viability, T/C was 91.6%.

What about the viability, T/C [5] of the same molecule?
The viability, T/C was 80.6%.

And the viability, T/C [6]?
Its viability, T/C is 69.5%.

And the viability, T/C [7]?
Its viability, T/C is 108%.

What about the viability, T/C [8] of the same molecule?
The viability, T/C was 116%.

What about the viability, T/C [9] of the same molecule?
Its viability, T/C is 93.4%.

What about the viability, T/C [10] of the same molecule?
Its viability, T/C is 94.8%.

What about the viability, T/C [11] of the same molecule?
The viability, T/C was 92.8%.

What about the viability, T/C [12] of the same molecule?
The viability, T/C was 65.3%.

What about the viability, T/C [13] of the same molecule?
The viability, T/C was 101%.

And the viability, T/C [14]?
The viability, T/C was 111%.

And the viability, T/C [15]?
The viability, T/C was 101%.

What about the viability, T/C [16] of the same molecule?
The viability, T/C was 103%.

And the viability, T/C [17]?
The viability, T/C was 92.8%.

What about the viability, T/C [18] of the same molecule?
The viability, T/C was 52.1%.

What about the viability, T/C [19] of the same molecule?
Its viability, T/C is 109%.

And the viability, T/C [20]?
Its viability, T/C is 112%.

What about the viability, T/C [21] of the same molecule?
Its viability, T/C is 91.5%.

And the viability, T/C [22]?
Its viability, T/C is 93.8%.

What about the viability, T/C [23] of the same molecule?
The viability, T/C was 90.3%.

And the viability, T/C [24]?
Its viability, T/C is 60.2%.

And the viability, T/C [25]?
The viability, T/C was 81.6%.

And the viability, T/C [26]?
Its viability, T/C is 82.9%.

And the viability, T/C [27]?
Its viability, T/C is 72.8%.

What about the viability, T/C [28] of the same molecule?
The viability, T/C was 75.2%.

And the viability, T/C [29]?
The viability, T/C was 69.6%.

What about the viability, T/C [30] of the same molecule?
Its viability, T/C is 47.2%.

What about the viability, T/C [31] of the same molecule?
The viability, T/C was 105%.

What about the viability, T/C [32] of the same molecule?
The viability, T/C was 84.4%.

And the viability, T/C [33]?
The viability, T/C was 96.3%.

And the viability, T/C [34]?
Its viability, T/C is 81.8%.

And the viability, T/C [35]?
Its viability, T/C is 98%.

And the viability, T/C [36]?
The viability, T/C was 58.6%.

What does the source list for `C=CC(=O)N1CCN(c2nc(=O)n(-c3c(C)ccnc3C(C)C)c3nc(-c4c(O)cccc4F)c(F)cc23)C(C)C1` (centres undefined) + Cc1cnc(CNC(=O)c2c(=O)c3ccc(N4CCCN(C)CC4)nc3n3c2sc2ccccc23)cn1?
IC50 (second compound 0.0316 µM): > 10 µM; IC50 (second compound 0.1 µM): 8.78 µM; IC50 (second compound 0.316 µM): 4.43 µM; IC50 (second compound 1 µM): 0.153 µM; IC50 (second compound 3.16 µM): < 0.0316 µM; IC50 (second compound 10 µM): < 0.0316 µM; viability, T/C [1]: 101%; viability, T/C [2]: 84.2%; viability, T/C [3]: 101%; viability, T/C [4]: 92.8%; viability, T/C [5]: 86.2%; viability, T/C [6]: 65%; viability, T/C [7]: 79.1%; viability, T/C [8]: 88.6%; viability, T/C [9]: 91%; viability, T/C [10]: 95.8%; viability, T/C [11]: 70.1%; viability, T/C [12]: 47.5%; viability, T/C [13]: 65.7%; viability, T/C [14]: 68.7%; viability, T/C [15]: 54.4%; viability, T/C [16]: 63.7%; viability, T/C [17]: 46.9%; viability, T/C [18]: 47.3%; viability, T/C [19]: 59.1%; viability, T/C [20]: 61.9%; viability, T/C [21]: 31.9%; viability, T/C [22]: 27.4%; viability, T/C [23]: 30.9%; viability, T/C [24]: 14.8%; viability, T/C [25]: 21.3%; viability, T/C [26]: 21.2%; viability, T/C [27]: 41.6%; viability, T/C [28]: 12.3%; viability, T/C [29]: 13.8%; viability, T/C [30]: 14.6%; viability, T/C [31]: 22%; viability, T/C [32]: 63.3%; viability, T/C [33]: 22.2%; viability, T/C [34]: 13.2%; viability, T/C [35]: 35.4%; viability, T/C [36]: 6.85%
